Experimental data published in patent US10597388B2, “Pyridazinone herbicides” (FMC CORPORATION, priority 2014, dated 2020).

What was measured:
Test in all cases: Test D controlled growth environment herbicide test, pre- and postemergence
Format in all cases: in vivo
[1] = tested on: mustard, wild (wild mustard, Sinapis arvensis)
Description: (§1) Seeds of plant species selected from bluegrass (annual bluegrass, Poa annua), blackgrass (Alopecurus myosuroides), Canada thistle (Cirsium arvense), canarygrass (Phalaris minor), chickweed (common chickweed, Stellaria media), geranium, cutleaf (cutleaf geranium, Geranium dissectum), galium (catchweed bedstraw, Galium aparine), bromegrass, downy (downy bromegrass, Bromus tectorum), field poppy (Papaver rhoeas), field violet (Viola arvensis), foxtail, green (green foxtail, Setaria viridis), deadnettle (henbit deadnettle, Lamium amplexicaule), ryegrass, Italian (Italian ryegrass, Lolium multiflorum), kochia (Kochia scoparia), lambsquarters (Chenopodium album), oilseed rape (Brassica napus), pigweed (Amaranthus retroflexus), chamomile (scentless chamomile, Matricaria inodora), Russian thistle (Salsola kali), speedwell (bird's-eye speedwell, Veronica persica), barley, spring (spring barley, Hordeum vulgare), wheat, spring (spring wheat, Triticum aestivum), buckwheat, wild (wild buckwheat, Polygonum convolvulus), mustard, wild (wild mustard, Sinapis arvensis), oat, wild (wild oat, Avena fatua), radish, wild (wild radish, Raphanus raphanistrum), windgrass (Apera spica-venti), barley, winter (winter barley, Hordeum vulgare), and wheat, winter (winter wheat, Triticum aestivum) were planted into a silt loam soil and treated preemergence with test chemicals formulated in a non-phytotoxic solvent mixture which included a surfactant.
(§2) At the same time, these species were planted in pots containing Redi-Earth® planting medium (Scotts Company, 14111 Scottslawn Road, Marysville, Ohio 43041) comprising spaghnum peat moss, vermiculite, wetting agent and starter nutrients and treated with postemergence applications of the test chemicals formulated in the same manner. Plants ranged in height from 2 to 18 cm (1- to 4-leaf stage). Treated plants and controls were maintained in a controlled growth environment for 14 to 21 d after which time all species were compared to controls and visually evaluated. Plant response ratings, summarized in Table D, are based on a scale of 0 to 100 where 0 is no effect and 100 is complete control. A dash (-) response means no test result.

[2] = tested on: bromegrass, downy (downy bromegrass, Bromus tectorum)
Description: as §1, §2

[3] = tested on: lambsquarters (Chenopodium album)
Description: as §1, §2

[4] = tested on: wheat, winter (winter wheat, Triticum aestivum)
Description: as §1, §2

[5] = tested on: speedwell (bird's-eye speedwell, Veronica persica)
Description: as §1, §2

[6] = tested on: chickweed (common chickweed, Stellaria media)
Description: as §1, §2

[7] = tested on: Russian thistle (Salsola kali)
Description: as §1, §2

[8] = tested on: windgrass (Apera spica-venti)
Description: as §1, §2

[9] = tested on: galium (catchweed bedstraw, Galium aparine)
Description: as §1, §2

[10] = tested on: deadnettle (henbit deadnettle, Lamium amplexicaule)
Description: as §1, §2

[11] = tested on: barley, winter (winter barley, Hordeum vulgare)
Description: as §1, §2

[12] = tested on: field poppy (Papaver rhoeas)
Description: as §1, §2

[13] = tested on: kochia (Kochia scoparia)
Description: as §1, §2

[14] = Postemergence, 31 g ai/ha, scale 0 to 100 (0 no effect, 100 complete control)
[15] = Postemergence, 125 g ai/ha, visual rating on scale 0 (no effect) to 100 (complete control), 14 to 21 d
[16] = Postemergence, 250 g ai/ha, scale 0 to 100 (0 no effect, 100 complete control)
[17] = Preemergence, 62 g ai/ha, scale 0 to 100 (0 no effect, 100 complete control)
[18] = Preemergence, 125 g ai/ha, scale 0 to 100 (0 no effect, 100 complete control)
[19] = Preemergence, 250 g ai/ha, scale 0 to 100 (0 no effect, 100 complete control)
[20] = postemergence, 62 g ai/ha, scale 0 to 100, 0 no effect, 100 complete control

Cc1ccc2ccc(C)c(-c3c(O)c(C)nn(C)c3=O)c2c1 [Compound 60]
70: Plant response rating, Mustard, Wild [1, 17] | Plant response rating, Russian Thistle [7, 19] | Deadnettle plant response rating [10, 14] | Kochia plant response rating [13, 14]
85: Plant response rating, Mustard, Wild [1, 18] | Speedwell plant response rating [5, 14] | Chickweed plant response rating [6, 14] | Plant response rating, Russian Thistle [7, 16] | Plant response rating (scale of 0 to 100), Windgrass ([8]; Preemergence, 31 g ai/ha) | Plant response rating, Windgrass [8, 20] | Plant response rating, Galium [9, 17] | Plant response rating, Deadnettle [10, 18] | Plant response rating, Field Poppy [12, 15] | Plant response rating, Kochia [13, 20]
50: Plant response rating, Barley, Winter [11, 16] | Plant response rating, Barley, Winter [11, 18]
80: Plant response rating, Bromegrass, Downy [2, 16] | Lambsquarters plant response rating [3, 14] | Plant response rating, Lambsquarters [3, 15] | Plant response rating, Lambsquarters [3, 16] | Plant response rating, Lambsquarters [3, 20] | Plant response rating, Speedwell [5, 20] | Russian Thistle plant response rating [7, 14] | Plant response rating, Russian Thistle [7, 15] | Plant response rating, Russian Thistle [7, 20] | Windgrass plant response rating [8, 14]
30: Bromegrass, Downy plant response rating [2, 14] | Plant response rating, Wheat, Winter [4, 20] | Plant response rating, Barley, Winter [11, 17]
90: Plant response rating, Mustard, Wild [1, 19] | Plant response rating, Bromegrass, Downy [2, 17] | Plant response rating, Speedwell [5, 15] | Plant response rating, Windgrass [8, 15] | Plant response rating, Windgrass [8, 17] | Plant response rating, Deadnettle [10, 17] | Plant response rating, Kochia [13, 15]
75: Mustard, Wild plant response rating [1, 14] | Plant response rating, Mustard, Wild [1, 20] | Plant response rating (scale of 0 to 100), Galium ([9]; Preemergence, 31 g ai/ha) | Plant response rating, Deadnettle [10, 20] | Plant response rating (scale of 0 to 100), Field Poppy ([12]; Preemergence, 31 g ai/ha) | Plant response rating, Field Poppy [12, 20] | Plant response rating, Kochia [13, 19]
100: Plant response rating, Mustard, Wild [1, 16] | Plant response rating (scale of 0 to 100), Lambsquarters ([3]; Preemergence, 31 g ai/ha) | Plant response rating, Lambsquarters [3, 17] | Plant response rating, Lambsquarters [3, 18] | Plant response rating, Lambsquarters [3, 19] | Plant response rating, Speedwell [5, 16] | Plant response rating (scale of 0 to 100), Speedwell ([5]; Preemergence, 31 g ai/ha) | Plant response rating, Speedwell [5, 17] | Plant response rating, Speedwell [5, 18] | Plant response rating, Speedwell [5, 19] | Plant response rating, Chickweed [6, 15] | Plant response rating, Chickweed [6, 16] | Plant response rating, Chickweed [6, 17] | Plant response rating, Chickweed [6, 18] | Plant response rating, Chickweed [6, 19] | Plant response rating, Chickweed [6, 20] | Plant response rating, Windgrass [8, 18] | Plant response rating, Windgrass [8, 19] | Galium plant response rating [9, 14] | Plant response rating, Galium [9, 15] | Plant response rating, Galium [9, 16] | Plant response rating, Galium [9, 19] | Plant response rating, Galium [9, 20] | Plant response rating, Deadnettle [10, 19] | Plant response rating, Field Poppy [12, 16] | Plant response rating, Field Poppy [12, 17] | Plant response rating, Field Poppy [12, 18] | Plant response rating, Field Poppy [12, 19]
45: Plant response rating (scale of 0 to 100), Mustard, Wild ([1]; Preemergence, 31 g ai/ha)
25: Wheat, Winter plant response rating [4, 14] | Plant response rating, Barley, Winter [11, 20]
35: Plant response rating, Wheat, Winter [4, 15] | Plant response rating, Wheat, Winter [4, 17] | Plant response rating, Russian Thistle [7, 18] | Plant response rating (scale of 0 to 100), Deadnettle ([10]; Preemergence, 31 g ai/ha)
55: Plant response rating, Bromegrass, Downy [2, 20] | Plant response rating, Wheat, Winter [4, 18] | Plant response rating, Wheat, Winter [4, 19]
10: Plant response rating (scale of 0 to 100), Wheat, Winter ([4]; Preemergence, 31 g ai/ha) | Barley, Winter plant response rating [11, 14]
20: Plant response rating, Russian Thistle [7, 17] | Plant response rating, Kochia [13, 17]
95: Plant response rating, Bromegrass, Downy [2, 18] | Plant response rating (scale of 0 to 100), Chickweed ([6]; Preemergence, 31 g ai/ha) | Plant response rating, Galium [9, 18] | Plant response rating, Deadnettle [10, 15] | Plant response rating, Deadnettle [10, 16] | Plant response rating, Kochia [13, 16]
98: Plant response rating, Mustard, Wild [1, 15] | Plant response rating, Bromegrass, Downy [2, 19] | Plant response rating, Windgrass [8, 16]
60: Plant response rating (scale of 0 to 100), Bromegrass, Downy ([2]; Preemergence, 31 g ai/ha) | Field Poppy plant response rating [12, 14] | Plant response rating, Kochia [13, 18]
15: Plant response rating (scale of 0 to 100), Russian Thistle ([7]; Preemergence, 31 g ai/ha) | Plant response rating (scale of 0 to 100), Barley, Winter ([11]; Preemergence, 31 g ai/ha) | Plant response rating (scale of 0 to 100), Kochia ([13]; Preemergence, 31 g ai/ha)
65: Plant response rating, Bromegrass, Downy [2, 15] | Plant response rating, Barley, Winter [11, 19]
40: Plant response rating, Wheat, Winter [4, 16] | Plant response rating, Barley, Winter [11, 15]
